Measured values as given in patent US5583144A, “Methods for treating erectile impotence” (priority 1995, dated 1996).
“Also recorded” adds a separate entry of the source.

Experiments:
[1] = test system: alpha-adrenergic receptor; test: Inhibition of epinephrine-induced pressor response (arterial blood pressure) in pentobarbital anesthetized rats; type: in vivo, Sprague-Dawley rats; details: for duration of action relative to that of phentolamine: 0.25 mg/kg iv each, four rats per treatment, alpha-adrenergic antagonism / duration of vasodilation (FIG. 1); for estimated pharmacologic half-life on alpha-adrenergic receptor antagonism: epinephrine 1.0 ug/kg iv challenge, pentobarbital anesthetized rats; for alpha-adrenergic antagonism in vivo: inhibition of the pressor effect of epinephrine challenge
Experimental: (§1) Eight male normotensive Sprague-Dawley rats weighing between 350 to 380 grams were used in these studies. Animals were fed and watered ad libitum in a temperature (22 degrees and humidity (50%) controlled vivarium with a light dark cycle of 12 hours.
Epinephrine, D,L-piperoxan, and phentolamine (Sigma Chemical Company; St. Louis, Mo.) were solubilized in 0.9% saline on the day of the experiment. All doses were calculated on free base weight. The rats were anesthetized with pentobarbital sodium 60 mg/kg i.p. All animals were checked for depth of anesthesia before proceeding further using the corneal reflex and toe pinch response as indicators. The ventral surface of the neck was shaven and a longitudinal incision, approximately 2 cm long, was made on the ventral surface. The trachea was isolated and intubated (PE205; Intramedic, Parsippany, N.J.) . The left internal jugular vein and right common carotid artery were cannulated (PE50; Clay Adams, Becton Dickinson, Parsippany, N.J.). The cannulas were heparinized (Sodium heparin 60 units/ml) and inserted approximately 1.5 cm into the vessels and were secured with 4-0 silk suture. The animal was placed in the supine position, and body temperature was maintained via a heat lamp. A short piece of hypodermic tubing was inserted into the venous and arterial cannulas, and each cannula connected to a three way stopcock via a section of PE50 and 23 gauge Luer stub. The jugular line was used for administration of epinephrine and either piperoxan or phentolamine. In order to directly record arterial blood pressure, the carotid arterial line was connected to an electronic blood pressure transducer (P23db; Gould Electronics, Oxnard, Calif.). The blood pressure transducer was connected to a Gould transducer amplifier and a thermal recorder for the purpose of recording the arterial blood pressure waveform. After a stable blood pressure baseline was obtained, epinephrine was injected intravenously at a dose of 1.0 ug/kg for the purpose of inducing an alpha-adrenergic receptor mediated pressor response. This response was quantified by measurement of the arterial blood pressure waveform. After the epinephrine-induced pressor effect returned to baseline, either phentolamine or piperoxan was administered intravenously at a dose of 0.25 mg/kg. After dosing with piperoxan and phentolamine, epinephrine injections were repeated at 5, 10, 15, 20, 30, 40, 50, and 60 minutes post dosing. Arterial blood pressure was measured continuously during the length of the experiments.
Percent inhibition of the epinephrine-induced pressor effect by both phentolamine and piperoxan was used as a measure of inhibition of the alpha-adrenergic receptor. As stated previously, inhibition of the alpha receptor results in vasodilatation. Percent inhibition was calculated by the following formula: [formula]

[2] = in water and acid solutions; cited from earlier work
[3] = cited from earlier work
erectile dysfunction = details: cited from earlier work; for duration of action / erections: agents used to treat impotence, causing pain and general discomfort; for priapism or extremely long erections following treatment for erectile dysfunction: men treated for erectile dysfunction, literature
[4] = test system: vascular alpha-adrenergic receptors; details: epinephrine 1.0 ug/kg iv; all rats tested
Experimental: as §1
Epinephrine, D,L-piperoxan, and phentolamine (Sigma Chemical Company; St. Louis, Mo.) were solubilized in 0.9% saline on the day of the experiment. All doses were calculated on free base weight. The rats were anesthetized with pentobarbital sodium 60 mg/kg i.p. All animals were checked for depth of anesthesia before proceeding further using the corneal reflex and toe pinch response as indicators. The ventral surface of the neck was shaven and a longitudinal incision, approximately 2 cm long, was made on the ventral surface. The trachea was isolated and intubated (PE205; Intramedic, Parsippany, N.J.) . The left internal jugular vein and right common carotid artery were cannulated (PE50; Clay Adams, Becton Dickinson, Parsippany, N.J.). […] This response was quantified by measurement of the arterial blood pressure waveform. […] Arterial blood pressure was measured continuously during the length of the experiments.
Percent inhibition of the epinephrine-induced pressor effect by both phentolamine and piperoxan was used as a measure of inhibition of the alpha-adrenergic receptor. […] Percent inhibition was calculated by the following formula: [formula]

**Q.** For c1ccc2c(c1)OCC(CN1CCCCC1)O2 (racemic) [piperoxan], which “duration of action relative to that of phentolamine” value [1] is on record?
**A.** Its value is “approximately one-half”.

**Q.** And the “duration of action relative to that of phentolamine” value ([1]; listed as Piperoxan)?
**A.** Its value is “approximately half”.

**Q.** And the “biological half-life / duration of action compared with phentolamine” value ([1]; 0.25 mg/kg iv, FIG. 1)?
**A.** Its value is “much shorter biological half-life; also recorded: shorter duration of action than phentolamine”.

**Q.** What about the “estimated pharmacologic half-life on alpha-adrenergic receptor antagonism” value ([1]; 0.25 mg/kg iv) of the same compound?
**A.** Its value is “approximately 30 minutes”.

**Q.** What about the “alpha-adrenergic antagonism in vivo” value ([1]; 0.25 mg/kg iv) of the same compound?
**A.** Its value is “inhibitory to the pressor-induced effect of epinephrine challenge; also recorded: alpha-adrenergic antagonist in vivo”.

**Q.** What about the solubility [2] of the same compound?
**A.** The solubility was “freely soluble”.

**Q.** And the “storage stability of aqueous solution” value ([3]; aqueous solution at pH 5.0, room temperature)?
**A.** Its value is “many months of storage at room temperature”.

**Q.** What about the “stability of aqueous solution to autoclaving” value ([3]; aqueous solution at pH 5.0) of the same compound?
**A.** Its value is “stable to autoclaving”.

**Q.** And the hygroscopicity of crystals ([3]; crystals)?
**A.** Its hygroscopicity of crystals is “not hygroscopic”.

**Q.** And the stability of crystals ([3]; crystals, light, air, normal storage temperatures)?
**A.** The stability of crystals was “stable to light, air, and normal storage temperatures”.

**Q.** Which results are given for Cc1ccc(N(CC2=NCCN2)c2cccc(O)c2)cc1 [phentolamine]?
**A.** estimated pharmacologic half-life on alpha-adrenergic receptor antagonism ([1]; 0.25 mg/kg iv): greater than 60 minutes; alpha-adrenergic antagonism in vivo ([1]; 0.25 mg/kg iv): inhibitory to the pressor-induced effect of epinephrine challenge; duration of action / erections (erectile dysfunction): extremely long duration of action, resulting in erections which last several hours; priapism or extremely long erections following treatment for erectile dysfunction (erectile dysfunction): priapism or extremely long erections

**Q.** Which “arterial blood pressure change” value [4] does the source give for CNC[C@H](O)c1ccc(O)c(O)c1 [epinephrine] here?
**A.** The value was “marked increase in arterial blood pressure in all rats tested”.

**Q.** Which “priapism or extremely long erections following treatment for erectile dysfunction” value (erectile dysfunction) does the source give for O=c1n(CCCN2CCN(c3cccc(Cl)c3)CC2)nc2ccccn12 [trazodone] here?
**A.** The value was “priapism or extremely long erections”.

**Q.** With COC(=O)[C@@H]1[C@H]2C[C@H]3c4[nH]c5ccccc5c4CCN3C[C@@H]2CC[C@@H]1O [yohimbine] as the compound, how does the “duration of action / erections” value (erectile dysfunction) read?
**A.** Its value is “extremely long duration of action, resulting in erections which last several hours”.

**Q.** For COc1ccc(Cc2nccc3cc(OC)c(OC)cc23)cc1OC [papaverine], which “priapism or extremely long erections following treatment for erectile dysfunction” value (erectile dysfunction) is on record?
**A.** The value was “priapism or extremely long erections”.

**Q.** For CC(COc1ccccc1)N(CCCl)Cc1ccccc1 (stereo not shown) [phenoxybenzamine], which “priapism or extremely long erections following treatment for erectile dysfunction” value (erectile dysfunction) is on record?
**A.** The value was “priapism or extremely long erections”.
